Data on 22 molecules can be found in patent US12054495B2, “Substituted macrocyclic compounds and related methods of treatment” (Alkermes, Inc., priority 2019, dated 2024).

What all share (assay type): in vitro ADME
One series concerns human hepatocytes. Nature of the series: Hepatocytes stability assay (human hepatocytes). The following applies: scaled hepatic clearance divided by liver blood flow, fu assumed unity. How it is done: (§1) In vitro metabolic stability was assessed using cryopreserved hepatocytes from male Sprague Dawley rats and a pool of 50 mixed gender humans (BioIVT, Baltimore, MD). The incubation mixtures were prepared by mixing 250 μL of pre-warmed KHB (Krebs-Henseleit buffer) containing 2×10^6 cell/mL of hepatocytes with 250 μL of pre-warmed KHB buffer containing 2 μM of test compounds in a 48-well plate, giving a final concentration of 1 μM test compound (0.1% DMSO) and 1×10^6 cell/mL of hepatocytes. The reaction mixture was incubated at 37 degrees C. A 50 μL aliquot of incubation mixture was taken at time points (0, 15, 30, 60, 120 and 240 minutes) and transferred into a 96-well plate containing 300 μL ice-cold acetonitrile (containing 30 ng/mL of labetalol and 10 ng/mL of Naltrexone-d3 as internal standards) and immediately placed in ice to terminate the reaction. Samples were centrifuged, and supernatants were transferred into 96-well plates for liquid chromatography with tandem mass spectrometry (LC-MS/MS) analysis to monitor the depletion of the test compound.
(§2) Data was calculated as percent remaining by assuming zero-minute time point peak area ratio (analyte/IS) as 100% and dividing remaining time point peak area ratios by zero-minute time point peak area ratio. Data were fitted to a first-order decay model to determine half-life. From a plot of log (ln) peak area against time, the slope of the line was determined. Subsequently, half-life (T1/2) and intrinsic clearance (CLint) were calculated using the equations below: Elimination rate constant (k)=(−slope) Half-life (T1/2)min=0.693/k Intrinsic Clearance (CLint) (mL/min/million cells)=(V×0.693)/T1/2 V=incubation volume mL/number of cells The in vitro T1/2 was converted to in vitro intrinsic clearance (CLint,hep) in units of mL/min/kg using the formula shown below:
(§3) [formula] The in vitro intrinsic clearance (CLint,hep) was scaled to in vivo hepatic clearance (CL,hep) using the following equation which was adapted from a well-stirred model.
(§4) [formula] where Q is the liver blood flow and fu is the fraction unbound (assumed to be unity in this case). All parameters used in the calculation are shown below (Table 4).
(§5) The extraction ratio (ER) was calculated by dividing the hepatic clearance of a compound to the liver blood flow. The data reported in Table 5 were obtained according to the human hepatocytes stability assay described above.

The nature of series [1]: Hepatocytes stability assay (human hepatocytes). The following applies: both sexes, cryopreserved hepatocytes, 1 μM test compound, 1×10^6 cell/mL, 37 degrees C, read-out: CLint (μL/min/million cells). As for the experimental part: as §1, §2, §3, §4, §5
For the next series, the system named is MDR1. Nature of the series: MDCK-MDR1 permeability assay. The following applies: dog; for Papp A→B at 2 h, 3 μM: MDCK-MDR1, MDCK-MDR1 cells, apical to basolateral, 3 μM test compound, 2 hours at 37 degrees C; for efflux ratio at 2 h, 3 μM: MDCK-MDR1, Papp (basolateral to apical) divided by Papp (apical to basolateral), MDCK-MDR1 cells, read-out: Efflux ratio (ER). As for the experimental part:
The bidirectional permeability (Apical to Basal and Basal to Apical directions) of test compounds in MDCK-MIDR1 cells were evaluated using MDCK-MIDR1 cells seeded in Solvo PreadyPort™ MIDCK 96-well plate. Once the plate was received from ReadyCell (Barcelona, Spain), it was treated as per PreadyPort™ user's manual.
For the Apical to Basolateral (A→B) permeability, 80 μL of test compound (3 μM) co-dosed with LY (Lucifer Yellow) (100 μM) in HBSS (Hank's Balanced Salt Solution) assay buffer was added to the donor side (A) while 250 μL of HBSS buffer was added to the receiver side (B). For the Basolateral to Apical (B→A) permeability, 255 μL of test compound (3 μM) in HBSS assay buffer was added to the donor side (B) while 75 μL of HBSS buffer containing LY (100 μM) was added to the receiver side (A).
The plate was placed in an incubator set at 37 degrees C. After 10 minutes of pre-warming, 5 μL aliquot was taken from donor compartment and set aside as the dosing solution. The MDCK-MDR1 incubation plate was placed back into the incubator for 2 hours of incubation at 37 degrees C. After 2 hours of incubation, 25 μL and 5 μL aliquots were removed from the receiver and donor sides, respectively. To the 5 μL aliquots taken from the donor sides (before and after a 2-hour incubation) were diluted with 20 μL of the HBSS buffer. All samples were mixed with 150 μL with acetonitrile containing internal standard (IS) and 200 μL water, and analyzed by LC-MS/MS.
The apparent permeability (Papp) was calculated using the following formula: Papp=dQ/dt×1/A×C0 where: • dQ/dt: amount of translocated material over incubation time (nmol/s) • A: area of insert (0.14 cm^2 for PreadyPort™ MDR1-96) • C0: initial concentration of product applied in apical (A→B) or basal (B→A) compartment (nmol/mL)
The efflux ratio (ER) was measured by dividing the Papp (basolateral to apical direction) by Papp (apical to basolateral direction). It is a general measure of the involvement of active processes. An ER>2 is considered positive for active transport.
The data reported in Table 3 were obtained according to the MDCK-MIDR1 permeability assay described above.

The structures appear in SMILES notation.

In the case of `CS(=O)(=O)N[C@H]1CCCN2C(=O)CCOc3ccccc3C3CCC(CC3)OCC12` (stereo partly shown) [Compound 1], the “Extraction Ratio (ER)” value in the series with human hepatocytes came out at 0.67. Moreover, in series [1], the hepatocyte CLint at 1 μM worked out at 14 µL/min/1e6 cells. In addition, in the series with MDR1, the apical-to-basolateral permeability (Papp A→B) at 2 h, 3 μM was determined as 0.15 ×10⁻⁶ cm/s and the efflux ratio at 2 h, 3 μM is more than 100.
Take `CS(=O)(=O)N[C@H]1CCCN2C(=O)CCCCOc3ccccc3C3CCC(CC3)OCC12` (stereo partly shown) [Compound 3]: in the series with human hepatocytes, the “Extraction Ratio (ER)” value turned out to be 0.87. Moreover, the hepatocyte CLint at 1 μM in series [1] was 43 µL/min/1e6 cells. Further, in the series with MDR1, the Papp A→B at 2 h, 3 μM was 0.8 ×10⁻⁶ cm/s and the efflux ratio at 2 h, 3 μM came out at 34.
For `CS(=O)(=O)N[C@H]1CCCN2C(=O)CCCOc3ccccc3C3CCC(CC3)OCC12` (stereo partly shown) [Compound 4], the “Extraction Ratio (ER)” value in the series on human hepatocytes worked out at 0.81. In addition, in series [1], the hepatocyte CLint at 1 μM is 28 µL/min/1e6 cells. Besides, in the series with MDR1, the Papp A→B at 2 h, 3 μM was 0.47 ×10⁻⁶ cm/s and the efflux ratio at 2 h, 3 μM came to 97.
In the same order, the values of `CS(=O)(=O)N[C@H]1CCCN2CCOc3ccccc3C3CCC(CC3)OCC12` (stereo partly shown) [Compound 6] are 0.87, 45 µL/min/1e6 cells, 21 ×10⁻⁶ cm/s and 0.66.
Take `CS(=O)(=O)N[C@H]1CCCN2C(=O)CCc3ccccc3C3CCC(CC3)OCC12` (stereo partly shown) [Compound 10]: the “Extraction Ratio (ER)” value in the series on human hepatocytes is on record as 0.55. Moreover, the hepatocyte CLint at 1 μM in series [1] was 8.3 µL/min/1e6 cells. For the same molecule, in the series with MDR1, the Papp A→B at 2 h, 3 μM amounted to 0.29 ×10⁻⁶ cm/s and the efflux ratio at 2 h, 3 μM was 15.
The corresponding values for `CS(=O)(=O)N[C@H]1CCCN2C(=O)COc3c(F)cccc3C3CCC(CC3)OCC12` (stereo partly shown) [Compound 11] are 0.83, 33 µL/min/1e6 cells, 2.2 ×10⁻⁶ cm/s and 5.5.
The corresponding values for `CS(=O)(=O)N[C@H]1CCCN2CCOc3c(F)cccc3C3CCC(CC3)OCC12` (stereo partly shown) [Compound 13] are 0.88, 47 µL/min/1e6 cells, 26 ×10⁻⁶ cm/s and 0.55.
For `CS(=O)(=O)N[C@H]1CCN2C(=O)COc3ncccc3C3CCC(CC3)OCC12` (stereo partly shown) [Compound 18], the “Extraction Ratio (ER)” value in the series with human hepatocytes is reported as 0.77. In addition, in series [1], the hepatocyte CLint at 1 μM was determined as 23 µL/min/1e6 cells. Moreover, in the series with MDR1, the Papp A→B at 2 h, 3 μM amounted to 3.9 ×10⁻⁶ cm/s and the efflux ratio at 2 h, 3 μM stood at 2.
Turning to `CC1(C)Oc2ccccc2C2CCC(CC2)OCC2[C@@H](NS(C)(=O)=O)CCCN2C1=O` (stereo partly shown) [Compound 36], the “Extraction Ratio (ER)” value in the series on human hepatocytes worked out at 0.91. In series [1], the hepatocyte CLint at 1 μM turned out to be 66 µL/min/1e6 cells. In the series on MDR1, the Papp A→B at 2 h, 3 μM was 2 ×10⁻⁶ cm/s and the efflux ratio at 2 h, 3 μM stood at 9.5.
`CS(=O)(=O)N[C@H]1CCN2CCOc3ccccc3C3CCC(CC3)OCC12` (stereo partly shown) [Compound 39]: in the series with human hepatocytes, the “Extraction Ratio (ER)” value turned out to be 0.88. For the same molecule, the hepatocyte CLint at 1 μM in series [1] came out at 47 µL/min/1e6 cells. Besides, in the series with MDR1, the Papp A→B at 2 h, 3 μM was 24 ×10⁻⁶ cm/s and the efflux ratio at 2 h, 3 μM turned out to be 0.49.
In the same order, the values of `CS(=O)(=O)N[C@H]1CCCN2C(=O)C(F)(F)Oc3ccccc3C3CCC(CC3)OCC12` (stereo partly shown) [Compound 40] are 0.91, 65 µL/min/1e6 cells, 3.6 ×10⁻⁶ cm/s and 5.1.
The corresponding values for `CS(=O)(=O)N[C@H]1CCN2C(=O)COc3c(F)cccc3C3CCC(CC3)OCC12` (stereo partly shown) [Compound 42] are 0.89, 52 µL/min/1e6 cells, 11 ×10⁻⁶ cm/s and 1.3.
In the same order, the values of `CS(=O)(=O)N[C@H]1CCN2C(=O)COc3c(F)cc(F)cc3C3CCC(CC3)OCC12` (stereo partly shown) [Compound 43] are 0.83, 34 µL/min/1e6 cells, 12 ×10⁻⁶ cm/s and 1.1.
Regarding `CC1(C)CN2CCC[C@H](NS(C)(=O)=O)C2COC2CCC(CC2)c2ccccc2O1` (stereo partly shown) [Compound 44], the “Extraction Ratio (ER)” value in the series on human hepatocytes is listed as 0.91. In addition, the hepatocyte CLint at 1 μM in series [1] worked out at 65 µL/min/1e6 cells. Further, in the series on MDR1, the Papp A→B at 2 h, 3 μM was found to be 6.3 ×10⁻⁶ cm/s and the efflux ratio at 2 h, 3 μM amounted to 1.9.
The corresponding values for `CS(=O)(=O)N[C@H]1CCCN2C(=O)C(F)(F)Oc3c(F)cc(F)cc3C3CCC(CC3)OCC12` (stereo partly shown) [Compound 52] are 0.87, 44 µL/min/1e6 cells, 1.2 ×10⁻⁶ cm/s and 12.
In the same order, the values of `CS(=O)(=O)N[C@H]1CCN2C(=O)C(F)(F)Oc3ccccc3C3CCC(CC3)OCC12` (stereo partly shown) [Compound 53] are 0.92, 19 µL/min/1e6 cells, 2.8 ×10⁻⁶ cm/s and 7.9.
With `CS(=O)(=O)N[C@H]1CCN2C(=O)C(F)(F)Oc3c(F)cc(F)cc3C3CCC(CC3)OCC12` (stereo partly shown) [Compound 54], in the series with human hepatocytes, the “Extraction Ratio (ER)” value stood at 0.89. In series [1], the hepatocyte CLint at 1 μM stood at 56 µL/min/1e6 cells. Moreover, in the series with MDR1, the Papp A→B at 2 h, 3 μM came out at 2.6 ×10⁻⁶ cm/s and the efflux ratio at 2 h, 3 μM stood at 7.3.
Regarding `CS(=O)(=O)N[C@H]1CCCN2C(=O)COc3ccc(Br)cc3C3CCC(CC3)OCC12` (stereo partly shown) [Compound 57], the “Extraction Ratio (ER)” value in the series on human hepatocytes was found to be 0.24. Further, the hepatocyte CLint at 1 μM in series [1] was 2.1 µL/min/1e6 cells. Also, in the series with MDR1, the apical-to-basolateral permeability (Papp A→B) at 2 h, 3 μM was determined as 0.16 ×10⁻⁶ cm/s and the efflux ratio at 2 h, 3 μM was 51.
In the same order, the values of `CS(=O)(=O)N[C@H]1CCCN2CCOc3c(F)cc(F)cc3C3CCC(CC3)OCC12` (stereo partly shown) [Compound 58] are 0.90, 62 µL/min/1e6 cells, 1.5 ×10⁻⁶ cm/s and 10.
The corresponding values for `CS(=O)(=O)N[C@H]1CCCN2CCOc3ccc(Cl)cc3C3CCC(CC3)OCC12` (stereo partly shown) [Compound 61] are 0.83, 33 µL/min/1e6 cells, 2 ×10⁻⁶ cm/s and 5.5.
The corresponding values for `CS(=O)(=O)N[C@H]1CCCN2C(=O)COc3ncc(F)cc3C3CCC(CC3)OCC12` (stereo partly shown) [Compound 64] are 0.57, 9 µL/min/1e6 cells, 0.83 ×10⁻⁶ cm/s and 30.
As to `CS(=O)(=O)N[C@H]1CCCN2CCOc3ncccc3C3CCC(CC3)OCC12` (stereo partly shown) [Compound 65], the “Extraction Ratio (ER)” value in the series on human hepatocytes is 0.84. Moreover, the hepatocyte CLint at 1 μM in series [1] was determined as 34 µL/min/1e6 cells. Further, in the series with MDR1, the Papp A→B at 2 h, 3 μM was found to be 15 ×10⁻⁶ cm/s and the efflux ratio at 2 h, 3 μM came out at 0.5.

Broadly, the Papp A→B is how fast a substance crosses the layer from the apical side.
